Measured values published in PMC7901654, “Bioisosteric Discovery of NPA101.3, a Second-Generation RET/VEGFR2 Inhibitor Optimized for Single-Agent Polypharmacology” (Journal of Medicinal Chemistry, 2020).
Entries after “also recorded” stand apart in the source; their conditions may differ.

Assays:
[1] = tested on: NIH3T3 HRAS/G12V cells; assay: Phosphorylation and signalling Western blot in NIH3T3 HRAS/G12V cells; type: cell-based; details: up to a dose of 100.0 nM
Protocol: Protein lysates were prepared according to standard procedures. Briefly, cells were lysed in a buffer containing 50 mM N-2-hydroxyethylpiperazine-N′-2-ethanesulfonic acid (HEPES; pH 7.5), 1% (v/v) Triton X-100, 150 mM NaCl, 5 mM EGTA, 50 mM NaF, 20 mM sodium pyrophosphate, 1 mM sodium vanadate, 2 mM phenylmethanesulfonyl fluoride (PMSF), and 1 μg/mL aprotinin. Lysates were clarified by centrifugation at 10000g for 15 min. […] Immune complexes were detected with the enhanced chemiluminescence kit (Amersham Pharmacia Biotech, Little Chalfont, U.K.). Anti-phospho-SHC (#Y317), which recognizes SHC protein when phosphorylated on Y317, was from Upstate Biotechnology Inc. (Lake Placid, NY). Anti-SHC (H-108) was from Santa Cruz Biotechnology (Santa Cruz, CA). Anti-MAPK (9101) and anti-phospho-MAPK (9102), specific for p42/44MAPK (ERK1/2) phosphorylated on Thr202/Tyr204, antibodies were from Cell Signaling Technologies (Danvers, MA). Anti-phospho-VEGFR2/KDR (2478), specific for VEGFR2/KDR phosphorylated on Tyr1175, and anti-VEGFR2/KDR (2479) were from Cell Signaling Technologies. Anti-phospho-p70S6K (9234), specific for p70S6K phosphorylated on Thr389, and anti-p70S6K (2708) were from Cell Signaling Technologies. […]

[2] = tested on: NIH3T3 HRAS/G12V tumors; assay: Mouse xenograft, NIH3T3 HRAS/G12V; type: in vivo
Protocol: (§1) In vivo target (RET and VEGFR2) inhibition was studied by treating animals grafted with NIH3T3 RET/C634Y cells at different doses (0.3, 1, or 3 mg/kg/day p.o.) of NPA101.3 for 2 days and then performing Western blot analysis on protein extracts. […] Then, to determine antitumorigenic activity and to better distinguish RET- and VEGFR2-mediated effects, we tested NPA101.3 in nude mice transplanted with NIH3T3 cells transformed by either RET/C634Y or HRAS/G12V. Before tumors appeared, animals were treated daily with NPA101.3 (1.0, 3.0, or 10.0 mg/kg/day) or left untreated. […] Still, VEGFR2 inhibition was detected also in RAS-driven tumors, an effect that might explain the, albeit reduced, effect of the drug on their growth (Figure S13). Importantly, as predicted, no trace of NPA101.3 demethyl metabolites was detected after 1 or 4 h from oral dosing in mice (Figure S14).
Figure 6 Effects of NPA101.3 on in vivo tumor growth. NIH3T3 cells transformed by RET/C634Y or HRAS/G12V were inoculated subcutaneously into nu/nu mice. After 4 days, animals were randomly assigned to receive for the indicated time periods the compound (1.0, 3.0, or 10 mg/kg/day) (24 mice; 8 mice/group for 1, 3, and 10 mg/kg doses) or vehicle (8 mice) by oral gavage. The average size of tumors is reported ± SD.
NPA101.3 was dissolved in 80% H2O, 19.875% Tween 20, and 0.125% xanthan gum. The formulation was stored at room temperature and vortexed prior to administration. NIH3T3 RET/C634Y (200000) or NIH3T3 HRAS/G12V (50000) cells were inoculated subcutaneously into the dorsal portion (both sides) of 6-week-old female BALB/c nu/nu mice (32 mice/cell line) (Jackson Laboratories, Bar Harbor, ME). After 4 days, before tumors had appeared, animals were randomly assigned to receive NPA101.3 (1.0, 3.0, or 10 mg/kg/day) (8 mice/group) or vehicle control (8 mice) by oral gavage. Tumor diameters were measured with caliper every 2–3 days. Tumor volumes (V) were calculated by the rotational ellipsoid formula V = A × B^2/2 (A is the axial diameter, and B is the rotational diameter). […]

[3] = tested on: RET and VEGFR2 in NIH3T3 RET/C634Y tumours; assay: In vivo target (RET and VEGFR2) inhibition, Western blot of established tumours; set-up: species or system mouse; details: 3 mg/kg/day p.o. for 2 days, harvested 3 h after last dose
Protocol: as §1
Supplementary Figure S11: In vivo target inhibition of NPA101.3 in nude mice implanted with cells transformed by RET/C634Y […] NIH3T3 RET/C634Y cells (2 x 105) were inoculated subcutaneously into the right and left dorsal portions of nude mice. When tumours reached approximately ~200 mm 3, mice (2 mice/dose) were treated by oral gavage with 3 doses (0, 24, 48 h) of the compound (0.3, 1 and 3 mg/Kg) or left untreated (NT); proteins were harvested 3 h after the last dose. […]

Question: Which effect on phosphorylation/signalling [1] does the source give for CC(C)(C)c1cc(NC(=O)Cc2ccc(-n3cnc4cc(-c5ccc(S(C)(=O)=O)cc5)ccc43)cc2)no1 [NPA101.3] here?
Answer: virtually no effect

Question: What about the “formation of tumors driven by HRAS/G12V” value ([2]; 10 mg/kg/day oral, nu/nu mice) of the same compound?
Answer: weakened, but did not abrogate; also recorded: reduced, but did not abrogate

Question: What about the “RAS signaling (MAPK phosphorylation) in NIH3T3 HRAS/G12V tumors” value ([2]; 3 h after last dose) of the same compound?
Answer: virtually no effect

Question: And the “VEGFR2 inhibition in RAS-driven tumors” value ([2]; 3 h after last dose)?
Answer: detected

Question: And the “RET autophosphorylation and signaling and VEGFR2 phosphorylation in tumours” value [3]?
Answer: strongly inhibited
